Assay results as given in ChEMBL document CHEMBL3124876, “A perylene derivative regulates HIF-1α and Stat3 signaling pathways” (Bioorg Med Chem, 2014).
Calls of active or inactive are those of the source. The rule behind the calls is not given here.

Experiments:
[1] = target: Aryl hydrocarbon receptor nuclear translocator (Homo sapiens) (UniProt P27540); experiment: Inhibition of HIF-1 beta in human MDA-MB-231 cells at 1 to 20 uM by Western blotting analysis; type: cell-based
[2] = target: T1, Signal transducer and activator of transcription 1-alpha/beta (Homo sapiens) (UniProt P42224); experiment: Inhibition of Stat1 phosphorylation in human MDA-MB-231 cells at 0.05 to 10 uM by Western blotting analysis; type: cell-based
T1 sequence (whole entry): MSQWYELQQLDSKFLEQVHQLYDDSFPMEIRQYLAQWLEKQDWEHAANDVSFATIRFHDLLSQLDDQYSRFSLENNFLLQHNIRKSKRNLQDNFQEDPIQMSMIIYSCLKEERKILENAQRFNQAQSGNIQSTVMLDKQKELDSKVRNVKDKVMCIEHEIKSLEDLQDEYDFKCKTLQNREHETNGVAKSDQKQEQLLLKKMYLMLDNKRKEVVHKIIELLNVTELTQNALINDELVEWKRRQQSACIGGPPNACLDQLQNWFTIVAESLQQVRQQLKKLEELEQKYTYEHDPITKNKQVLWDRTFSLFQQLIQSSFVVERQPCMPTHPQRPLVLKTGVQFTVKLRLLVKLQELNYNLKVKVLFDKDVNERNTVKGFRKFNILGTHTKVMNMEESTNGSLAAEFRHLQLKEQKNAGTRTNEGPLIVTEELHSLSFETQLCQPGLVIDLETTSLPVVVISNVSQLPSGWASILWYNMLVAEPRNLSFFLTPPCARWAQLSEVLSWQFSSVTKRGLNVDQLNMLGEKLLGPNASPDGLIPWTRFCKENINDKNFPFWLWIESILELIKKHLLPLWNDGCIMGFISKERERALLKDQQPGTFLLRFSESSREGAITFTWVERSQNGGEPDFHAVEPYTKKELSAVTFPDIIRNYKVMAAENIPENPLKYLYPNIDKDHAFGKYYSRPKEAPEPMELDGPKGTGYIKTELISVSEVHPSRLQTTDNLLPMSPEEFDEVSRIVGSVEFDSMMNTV

Sequence of Aryl hydrocarbon receptor nuclear translocator (Homo sapiens) (P27540 whole entry): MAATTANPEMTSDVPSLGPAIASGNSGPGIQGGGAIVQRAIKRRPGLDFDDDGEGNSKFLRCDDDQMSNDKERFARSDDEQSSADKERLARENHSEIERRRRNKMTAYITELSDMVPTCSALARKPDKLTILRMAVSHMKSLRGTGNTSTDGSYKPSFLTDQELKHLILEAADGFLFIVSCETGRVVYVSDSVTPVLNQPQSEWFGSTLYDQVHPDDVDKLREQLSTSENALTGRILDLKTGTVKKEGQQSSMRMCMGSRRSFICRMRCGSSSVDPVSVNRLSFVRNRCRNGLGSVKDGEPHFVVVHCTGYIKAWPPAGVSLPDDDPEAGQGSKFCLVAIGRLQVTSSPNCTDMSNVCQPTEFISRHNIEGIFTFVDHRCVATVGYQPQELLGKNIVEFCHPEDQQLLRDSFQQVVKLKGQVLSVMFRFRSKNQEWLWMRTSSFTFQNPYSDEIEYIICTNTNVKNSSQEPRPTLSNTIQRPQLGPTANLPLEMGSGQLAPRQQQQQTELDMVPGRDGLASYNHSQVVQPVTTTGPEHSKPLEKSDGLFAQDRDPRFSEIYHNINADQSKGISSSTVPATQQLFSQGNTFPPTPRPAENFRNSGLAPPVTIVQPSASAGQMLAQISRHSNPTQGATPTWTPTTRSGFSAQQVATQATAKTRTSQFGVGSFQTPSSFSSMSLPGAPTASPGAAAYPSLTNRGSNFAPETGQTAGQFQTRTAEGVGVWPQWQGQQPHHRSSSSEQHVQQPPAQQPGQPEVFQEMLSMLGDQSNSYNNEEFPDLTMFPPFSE

- inhibition [1]: inactive
- inhibition [2]: inactive
SMILES: CN(C)CCCN1C(=O)c2ccc3c4ccc5c6c(ccc(c7ccc(c2c37)C1=O)c64)C(=O)N(CCCN(C)C)C5=O
